Assay results reported in ChEMBL document CHEMBL1949552, “Synthesis and interaction with midkine of biotinylated chondroitin sulfate tetrasaccharides” (Bioorg Med Chem Lett, 2012).

Molecular target: T1, Midkine (Homo sapiens, UniProt P21741)
T1 sequence (P21741 whole entry): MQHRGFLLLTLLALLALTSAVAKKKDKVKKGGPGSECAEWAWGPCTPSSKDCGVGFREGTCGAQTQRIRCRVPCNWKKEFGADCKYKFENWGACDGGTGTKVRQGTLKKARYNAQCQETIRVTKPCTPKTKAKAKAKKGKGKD
Test: Binding affinity to recombinant midkine after 3 mins

Kd	Structure (SMILES)
2030 nM	CC(=O)N[C@H]1[C@H](O[C@H]2[C@H](O)[C@@H](O)[C@H](O[C@H]3[C@@H](O)[C@@H](CO)O[C@@H](O[C@H]4[C@H](O)[C@@H](O)[C@H](OCCNC(=O)CCOCCOCCOCCOCCNC(=O)CCCC[C@@H]5SC[C@@H]6NC(=O)N[C@@H]65)O[C@@H]4C(=O)O)[C@@H]3NC(C)=O)O[C@@H]2C(=O)O)O[C@H](CO)[C@H](O)[C@@H]1O
11.6 nM	CC(=O)N[C@H]1[C@H](O[C@H]2[C@H](O)[C@@H](O)[C@H](O[C@@H]3[C@@H](NC(C)=O)[C@H](O[C@H]4[C@H](O)[C@@H](O)[C@H](OCCNC(=O)CCOCCOCCOCCOCCNC(=O)CCCC[C@@H]5SC[C@@H]6NC(=O)N[C@@H]65)O[C@@H]4C(=O)O)O[C@H](CO)[C@@H]3OS(=O)(=O)O)O[C@@H]2C(=O)O)O[C@H](COS(=O)(=O)O)[C@H](OS(=O)(=O)O)[C@@H]1O
2.62 nM	CC(=O)N[C@H]1[C@H](O[C@H]2[C@H](O)[C@@H](O)[C@H](O[C@@H]3[C@@H](NC(C)=O)[C@H](O[C@H]4[C@H](O)[C@@H](O)[C@H](OCCNC(=O)CCOCCOCCOCCOCCNC(=O)CCCC[C@@H]5SC[C@@H]6NC(=O)N[C@@H]65)O[C@@H]4C(=O)O)O[C@H](COS(=O)(=O)O)[C@@H]3OS(=O)(=O)O)O[C@@H]2C(=O)O)O[C@H](COS(=O)(=O)O)[C@H](OS(=O)(=O)O)[C@@H]1O
17.8 nM	CC(=O)N[C@H]1[C@H](O[C@H]2[C@H](O)[C@@H](O)[C@H](O[C@@H]3[C@@H](NC(C)=O)[C@H](O[C@H]4[C@H](O)[C@@H](O)[C@H](OCCNC(=O)CCOCCOCCOCCOCCNC(=O)CCCC[C@@H]5SC[C@@H]6NC(=O)N[C@@H]65)O[C@@H]4C(=O)O)O[C@H](CO)[C@@H]3OS(=O)(=O)O)O[C@@H]2C(=O)O)O[C@H](CO)[C@H](OS(=O)(=O)O)[C@@H]1O
